From the supplement of paper PMC8920030

Columns and labels:
Conditions in all cases: growth mode: biofilm, 24 h; exposure time: 24 h
tobramycin [1] = compound: T1, NC[C@H]1O[C@H](O[C@H]2[C@H](O)[C@@H](O[C@H]3O[C@H](CO)[C@@H](O)[C@H](N)[C@H]3O)[C@H](N)C[C@@H]2N)[C@H](N)C[C@@H]1O [tobramycin]; test: minimum concentration of killing, 1-log CFU reduction of biofilm (MCK90); higher = more biofilm tolerance
Protocol: (§1)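 Clinical P. aeruginosa isolates were grown as static biofilms for 24 h at 37 °C in LB in half-area 96-well plates, then exposed for 24 h to tobramycin at 1, 4, 16, 64, 256 or […]. Surviving CFU were counted by spotting serial dilutions. MCK is the lowest tested concentration giving the stated log reduction in CFU versus an untreated control; '>1024' means the reduction was not reached at the top dose, and 1 is the lowest dose tested (≤1).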

tobramycin [2] = compound: T1, tobramycin; test: minimum concentration eradicating biofilm below detection limit (MCK-E); higher = more biofilm tolerance
Protocol: as §1

colistin [3] = compound: T2, CCC(C)CCCC(=O)N[C@@H](CCN)C(=O)N[C@H](C(=O)N[C@@H](CCN)C(=O)N[C@H]1CCNC(=O)[C@H]([C@@H](C)O)NC(=O)[C@H](CCN)NC(=O)[C@H](CCN)NC(=O)[C@H](CC(C)C)NC(=O)[C@@H](CC(C)C)NC(=O)[C@H](CCN)NC1=O)[C@@H](C)O [colistin]; test: minimum concentration of killing, 4-log CFU reduction of biofilm (MCK99.99); higher = more biofilm tolerance
Protocol: as §1, with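 “colistin” for “tobramycin”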

colistin [4] = compound: T2, colistin; test: minimum concentration of killing, 1-log CFU reduction of biofilm (MCK90); higher = more biofilm tolerance
Protocol: as §1, with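 “colistin” for “tobramycin”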

tobramycin [5] = compound: T1, tobramycin; test: minimum concentration of killing, 4-log CFU reduction of biofilm (MCK99.99); higher = more biofilm tolerance
Protocol: as §1

colistin [6] = compound: T2, colistin; test: minimum concentration eradicating biofilm below detection limit (MCK-E); higher = more biofilm tolerance
Protocol: as §1, with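 “colistin” for “tobramycin”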

colistin [7] = compound: T2, colistin; test: minimum concentration of killing, 2-log CFU reduction of biofilm (MCK99); higher = more biofilm tolerance
Protocol: as §1, with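 “colistin” for “tobramycin”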

tobramycin [8] = compound: T1, tobramycin; test: as above
Protocol: as §1

| Test System | minimum concentration of killing (tobramycin [1]) | minimum concentration eradicating biofilm below detection limit (tobramycin [2]) | minimum concentration of killing (colistin [3]) | minimum concentration of killing (colistin [4]) | minimum concentration of killing (tobramycin [5]) | minimum concentration eradicating biofilm below detection limit (colistin [6]) | minimum concentration of killing (colistin [7]) | minimum concentration of killing (tobramycin [8]) |
| --- | --- | --- | --- | --- | --- | --- | --- | --- |
| Pseudomonas aeruginosa clinical isolate CH2660 | 4 µg/mL | 256 µg/mL | 256 µg/mL | 64 µg/mL | 64 µg/mL | 256 µg/mL | 256 µg/mL | 64 µg/mL |
| Pseudomonas aeruginosa clinical isolate CH2672 | 16 µg/mL | > 1020 µg/mL | 256 µg/mL | 256 µg/mL | 256 µg/mL | 256 µg/mL | 256 µg/mL | 64 µg/mL |
| Pseudomonas aeruginosa clinical isolate CH2677 | 256 µg/mL | > 1020 µg/mL | 256 µg/mL | 64 µg/mL | 1020 µg/mL | 256 µg/mL | 64 µg/mL | 1020 µg/mL |
| Pseudomonas aeruginosa clinical isolate CH5550 | 16 µg/mL | 1020 µg/mL | > 1020 µg/mL | 256 µg/mL | 1020 µg/mL | > 1020 µg/mL | 256 µg/mL | 16 µg/mL |
| Pseudomonas aeruginosa clinical isolate CH5596 | 4 µg/mL | 256 µg/mL | 256 µg/mL | 64 µg/mL | 64 µg/mL | 256 µg/mL | 64 µg/mL | 4 µg/mL |
| Pseudomonas aeruginosa clinical isolate CH5597 | ≤ 1 µg/mL | 256 µg/mL | 64 µg/mL | 64 µg/mL | 256 µg/mL | 64 µg/mL | 64 µg/mL | 64 µg/mL |
| Pseudomonas aeruginosa clinical isolate CH5621 | 64 µg/mL | > 1020 µg/mL | 256 µg/mL | 256 µg/mL | > 1020 µg/mL | 256 µg/mL | 256 µg/mL | 1020 µg/mL |
| Pseudomonas aeruginosa clinical isolate CH5638 | 16 µg/mL | 1020 µg/mL | 256 µg/mL | 64 µg/mL | 1020 µg/mL | 256 µg/mL | 256 µg/mL | 16 µg/mL |
| Pseudomonas aeruginosa clinical isolate ESP001 | 16 µg/mL | 1020 µg/mL | 256 µg/mL | 64 µg/mL | 256 µg/mL | 256 µg/mL | 64 µg/mL | 256 µg/mL |
| Pseudomonas aeruginosa clinical isolate ESP002 | 256 µg/mL | 256 µg/mL | 256 µg/mL | 4 µg/mL | 256 µg/mL | 256 µg/mL | 64 µg/mL | 256 µg/mL |
| Pseudomonas aeruginosa clinical isolate ESP003 | 16 µg/mL | 1020 µg/mL | 256 µg/mL | 256 µg/mL | 1020 µg/mL | 256 µg/mL | 256 µg/mL | 256 µg/mL |
| Pseudomonas aeruginosa clinical isolate ESP004 | 256 µg/mL | > 1020 µg/mL | 256 µg/mL | 64 µg/mL | 1020 µg/mL | 256 µg/mL | 256 µg/mL | 1020 µg/mL |
| Pseudomonas aeruginosa clinical isolate ESP006 | 16 µg/mL | 1020 µg/mL | 64 µg/mL | 64 µg/mL | 256 µg/mL | 256 µg/mL | 64 µg/mL | 64 µg/mL |
| Pseudomonas aeruginosa clinical isolate ESP009 | 16 µg/mL | 1020 µg/mL | 64 µg/mL | 64 µg/mL | 256 µg/mL | 64 µg/mL | 64 µg/mL | 16 µg/mL |
| Pseudomonas aeruginosa clinical isolate ESP011 | 16 µg/mL | 1020 µg/mL | 64 µg/mL | 16 µg/mL | 1020 µg/mL | 64 µg/mL | 16 µg/mL | 256 µg/mL |
| Pseudomonas aeruginosa clinical isolate ESP012 | 256 µg/mL | > 1020 µg/mL | 64 µg/mL | 64 µg/mL | > 1020 µg/mL | 64 µg/mL | 64 µg/mL | > 1020 µg/mL |
| Pseudomonas aeruginosa clinical isolate ESP013 | > 1020 µg/mL | > 1020 µg/mL | 256 µg/mL | 64 µg/mL | > 1020 µg/mL | 1020 µg/mL | 64 µg/mL | > 1020 µg/mL |
| Pseudomonas aeruginosa clinical isolate ESP015 | 4 µg/mL | 256 µg/mL | 256 µg/mL | 64 µg/mL | 256 µg/mL | 256 µg/mL | 256 µg/mL | 64 µg/mL |
